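Compound exposure: 48 hours, 5 concentrations, 96-well plates. Abbreviation: GI50, concentration required for 50% inhibition of growth. The concentration for full growth arrest is given as TGI.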
Key:
Test in all cases: NCI-60 cell line screen, 48 h
[1] = system: OVCAR-3 ovarian
[2] = system: SN12C renal
[3] = system: OVCAR-8 ovarian
[4] = system: MOLT-4 leukemia
[5] = system: BT-549 breast
[6] = system: UO-31 renal
[7] = system: SK-MEL-2 melanoma
[8] = system: LOX IMVI melanoma
[9] = system: UACC-62 melanoma
[10] = system: NCI-H226 lung

Row | Structure (SMILES) | TGI [1] [µM] | TGI [2] [µM] | TGI [3] [µM] | TGI [4] [µM] | TGI [5] [µM] | TGI [6] [µM] | TGI [7] [µM] | TGI [8] [µM] | TGI [9] [µM] | TGI [10] [µM] | GI50 [1] [µM] | GI50 [2] [µM] | GI50 [3] [µM] | GI50 [4] [µM] | GI50 [5] [µM] | GI50 [6] [µM] | GI50 [7] [µM] | GI50 [8] [µM] | GI50 [9] [µM] | GI50 [10] [µM]
1 | Cc1nc(-c2ccc(N=Cc3ccc(N(CCOS(C)(=O)=O)CCOS(C)(=O)=O)cc3C)cc2)cs1 | > 100 | > 100 | > 100 | > 100 | > 100 | 62 | > 100 | > 100 | > 100 | 28.3 | – | – | – | – | – | – | – | – | – | –
2 | Nc1nc(Cl)c(N)c(NCC2(CO)CC(CCCc3ccccc3)C2)n1 (stereo not given) | > 67.2 | > 100 | > 100 | > 100 | > 81.8 | > 100 | 30.6 | 98.7 | > 100 | > 63.7 | – | – | – | – | – | – | – | – | – | –
3 | CCOP(=O)(OCC)C(C)(CC)NC (stereo not given) | > 100 | > 100 | > 100 | > 100 | > 100 | > 100 | > 100 | > 100 | > 100 | > 100 | – | – | – | – | – | – | – | – | – | –
4 | O=C(O)CNC(=O)c1c2ccccc2nc2ccccc12 | > 100 | > 100 | > 100 | > 100 | > 100 | > 100 | > 100 | > 100 | > 100 | > 100 | – | – | – | – | – | – | – | – | – | –
5 | Nc1ccc(CCN2CCN(CCCc3ccccc3)CC2)cc1 | > 100 | > 100 | > 100 | > 100 | > 100 | > 100 | > 100 | > 100 | > 100 | > 100 | – | – | – | – | – | – | – | – | – | –
6 | CC1OC(OC2C(OC(=O)[C@@H]3CC(C)(C)C[C@H]4C5=CC[C@@H]6[C@@]7(C)C[C@H](O)[C@H](OC8OC(CO)C(O)C(O)C8O)[C@@](C)(CO)[C@@H]7[C@H](O)C[C@@]6(C)[C@]5(C)CC[C@@]34C)OCC(O)C2O)C(O)C(O)C1O (stereo not given in full) | > 7.5 | > 7.5 | > 7.5 | > 7.5 | > 7.5 | > 7.5 | > 7.5 | > 7.5 | > 7.5 | > 7.5 | – | – | – | – | – | – | – | – | – | –
7 | CCC(c1c[nH]c2ccc(Br)cc12)c1c[nH]c2ccc(Br)cc12 | 14.2 | 15.4 | 21.2 | 4.56 | 23.3 | 18.7 | 23.1 | 6.66 | 22.2 | 44 | – | – | – | – | – | – | – | – | – | –
8 | COc1ccc(C(=O)c2[nH]c(Nc3ccc(Cl)cc3)c(C(=S)Nc3ccccc3)c2N)cc1 | > 100 | > 100 | > 100 | > 100 | > 100 | > 100 | > 100 | > 100 | > 100 | > 100 | – | – | – | – | – | – | – | – | – | –
9 | OC(c1ccc(-c2ccccc2)cc1)C(F)(F)c1nc2ccccc2o1 (stereo not given) | > 100 | > 100 | > 93.1 | > 100 | > 100 | > 100 | > 100 | > 100 | > 100 | > 100 | – | – | – | – | – | – | – | – | – | –
10 | Brc1ccc(-c2cn3ccncc3n2)cc1 | > 100 | > 100 | > 100 | > 100 | > 100 | > 100 | > 100 | > 100 | > 100 | > 100 | – | – | – | – | – | – | – | – | – | –
11 | COc1nc(N)c(N=CC(OC(C)=O)C(OC(C)=O)C(COC(C)=O)OC(C)=O)c(=O)n1C (stereo not given) | > 100 | > 100 | > 100 | > 100 | > 100 | > 100 | > 100 | > 100 | > 100 | > 100 | – | – | – | – | – | – | – | – | – | –
12 | Cc1cc(O)c(C(C)C)cc1C1(c2cc(C(C)C)c(O)cc2C)OC(=O)c2ccccc21 | 4.85 | 4.35 | 9.14 | 3.38 | 5.53 | 7.04 | 3.28 | 3.53 | 2.87 | 6.3 | – | – | – | – | – | – | – | – | – | –
13 | O=C(/C=C/c1csc(-c2ccccc2)n1)NCc1ccc(C(=O)NCc2ccccc2)cc1 | > 100 | > 100 | > 100 | > 100 | > 100 | > 100 | > 100 | > 100 | > 100 | > 100 | – | – | – | – | – | – | – | – | – | –
14 | CCOC(=O)CSc1nnc(C(Sc2nc(-c3ccccc3)c(-c3ccccc3)[nH]2)C(C)C)n1-c1ccccc1 (stereo not given) | > 10 | 26.1 | > 31.6 | 50 | 52.9 | > 31.6 | 22.9 | 19.9 | > 10 | 26 | – | – | – | – | – | – | – | – | – | –
15 | CCOc1cc(NC(C)=O)ccc1C(=O)NN1C(=O)C(Cl)C1c1ccco1 (stereo not given) | 32 | 32.8 | > 100 | 29.8 | 30.4 | 11.5 | 37.3 | 13.1 | 25.6 | > 100 | – | – | – | – | – | – | – | – | – | –
16 | CC(C)(CC(O)C#N)/[N+]([O-])=[N+](\[O-])C(C)(C)CC(O)C#N (stereo not given) | 69.2 | 45.3 | > 100 | 34.5 | 78.8 | 98.1 | > 100 | 42.7 | 37.2 | 77 | – | – | – | – | – | – | – | – | – | –
17 | N#C/C(=C\c1c[nH]c2ccccc12)C(=O)c1ccc(O)c(O)c1 | 17.2 | > 91.5 | > 100 | 98.1 | 65.1 | 45.9 | > 80.3 | > 100 | > 100 | > 100 | – | – | – | – | – | – | – | – | – | –

Row | Structure (SMILES) | TGI [1] [µM] | TGI [2] [µM] | TGI [3] [µM] | TGI [4] [µM] | TGI [5] [µM] | TGI [6] [µM] | TGI [7] [µM] | TGI [8] [µM] | TGI [9] [µM] | TGI [10] [µM] | GI50 [1] [µM] | GI50 [2] [µM] | GI50 [3] [µM] | GI50 [4] [µM] | GI50 [5] [µM] | GI50 [6] [µM] | GI50 [7] [µM] | GI50 [8] [µM] | GI50 [9] [µM] | GI50 [10] [µM]
18 | COc1ccc(-n2cnc3c(NC(CCSC)C(=O)O)ncnc32)cc1 (stereo not given) | > 100 | > 100 | > 100 | > 100 | > 100 | > 100 | > 100 | > 100 | > 100 | > 100 | – | – | – | – | – | – | – | – | – | –
19 | Cc1cc(NCCCCCCCNc2cc(C)nc3cc([N+](=O)[O-])ccc23)c2ccc([N+](=O)[O-])cc2n1 | 25 | 13.4 | 3.85 | 4.23 | 67.3 | 29 | 98.3 | 5.69 | 53.2 | 37.4 | – | – | – | – | – | – | – | – | – | –
20 | CC(C)C1=CC23CCC4C(C)(C(=O)O)CCCC4(C)C2CC1C1C(=O)N(c2ccc(C(=O)O)cc2)C(=O)C13 (stereo not given) | > 100 | > 100 | > 100 | > 100 | > 100 | > 100 | > 100 | > 100 | > 100 | > 100 | – | – | – | – | – | – | – | – | – | –
21 | O=C1C[C@@H](c2ccccc2)O[C@@H](c2ccccc2)C1 | > 100 | > 100 | > 100 | > 100 | > 100 | > 100 | > 100 | > 100 | > 100 | > 100 | – | – | – | – | – | – | – | – | – | –
22 | CC1OC(O[C@H]2/C=C/C=C/C=C/C=C/C=C/C=C/C=C/[C@H](C)[C@@H](O)[C@@H](C)[C@H](C)OC(=O)CC(O)CC(O)CCC(O)C(O)CC(O)C[C@]3(O)C[C@H](O)C(C(=O)O)C(C2)O3)C(O)[C@H](N)C1O (stereo not given in full) | 5.35 | 2.99 | 9.86 | 6.02 | 30.4 | 2.76 | 12 | 3.6 | 7.62 | 4.31 | 2.39 | 1.58 | 2.9 | 2.9 | 13.9 | 1.4 | 3.9 | 1.79 | 2.78 | 2
23 | CCC[C@H](C)C[C@H](C)C[C@H](C)/C=C(\C)[C@@H](O)[C@@H](C)C(=O)CC | 34.4 | 35.5 | 39.4 | 43.3 | 44.1 | 41.7 | 44.7 | 37.8 | 33.8 | 42.6 | – | – | – | – | – | – | – | – | – | –
24 | c1ccc(CSCCc2ccncc2)cc1 | > 100 | > 100 | > 100 | > 100 | > 100 | > 100 | > 100 | > 100 | > 100 | > 100 | – | – | – | – | – | – | – | – | – | –
25 | O=c1onc2c3ccccc3ncn12 | > 100 | > 100 | > 100 | > 100 | > 100 | > 100 | > 100 | > 100 | > 100 | > 100 | – | – | – | – | – | – | – | – | – | –
26 | C[C@H]1C=C2[C@@H]3CC(C)(C(=O)O)CC[C@]3(C)CC[C@]2(C)[C@]2(C)CC[C@H]3C(C)(C)[C@@H](OC(=O)c4cccc5c(=O)c6ccccc6[nH]c45)CC[C@]3(C)[C@@H]12 (stereo not given in full) | > 100 | > 100 | > 100 | > 100 | > 100 | > 100 | > 100 | > 100 | > 100 | > 100 | – | – | – | – | – | – | – | – | – | –
27 | CN(C)CCCN1c2ccccc2CCc2ccc([N+](=O)[O-])cc21 | > 100 | 58 | > 100 | > 100 | 73.7 | 76 | 43.9 | 31.5 | 33.3 | 90.4 | – | – | – | – | – | – | – | – | – | –
28 | CCN(c1cccc(NC(=S)Nc2ccccc2N(CC)c2cc(-c3ccccc3)no2)c1)c1cc(-c2ccccc2)no1 | > 100 | > 100 | > 100 | > 100 | > 100 | > 100 | > 100 | > 100 | > 100 | > 100 | – | – | – | – | – | – | – | – | – | –
29 | O=[As](O)(O)c1ccc(N=Nc2ccc(O)cc2)cc1 | > 100 | > 100 | > 100 | 17.1 | > 100 | > 100 | > 100 | > 100 | > 100 | > 100 | – | – | – | – | – | – | – | – | – | –
30 | CCOC(=O)c1ccc(C(=O)C(C(C)=O)C(=O)OC(C)(C)C)[nH]1 (stereo not given) | > 100 | > 100 | > 100 | > 100 | > 100 | > 100 | > 100 | > 100 | > 100 | > 100 | – | – | – | – | – | – | – | – | – | –
31 | C=CCOC(=O)C1C2OC3(C(C(=O)OC)=C2C(=O)OC)c2ccccc2CCC13 (stereo not given) | > 10 | > 10 | > 10 | > 10 | > 10 | > 10 | > 10 | > 10 | > 10 | > 10 | – | – | – | – | – | – | – | – | – | –
32 | Cc1n[nH]c(=O)n1/N=C/c1ccc([N+](=O)[O-])o1 | 17.8 | 14.4 | 34.6 | > 100 | 36.6 | 30.2 | > 53.8 | 27.1 | 33.6 | 56 | – | – | – | – | – | – | – | – | – | –
33 | COC(=O)C1=C(OC(=O)c2ccccc2)C(C(=O)OC)[C@]2(O)[C@@H](C(=O)OC)[C@H]1C[C@@H](c1ccccc1)[C@@H]2C(=O)OC (stereo not given in full) | 57.4 | 43.2 | 20.3 | 23 | 75.6 | 10.1 | 13.9 | 26.7 | 60.4 | 19.2 | – | – | – | – | – | – | – | – | – | –
